From US20050159427A1, “N-acylsulfonamide apoptosis promoters” (priority 2003, published 2005)
Entries after “also recorded” stand apart in the source; their conditions may differ.

Assays:
[1] = system: human tumor cell lines derived from small cell lung carcinomas and lymphoid malignancies of both T-cell and B-cell origin; settings: small cell lung carcinoma and T-cell / B-cell lymphoid malignancy cell lines
SF-295 = test: Tumor cell viability (TABLE 1); assay type: cell-based; settings: Homo sapiens, read-out: EC50 (50% reduction in cell viability); SF-295 (CNS); serum-free conditions, 48 hour treatment; mean ± SEM
RS11380 = RS11380 model of B-cell follicular lymphoma; assay type: in vivo
OVCAR-5 = test: Tumor cell viability (TABLE 1); assay type: cell-based; settings: Homo sapiens, read-out: EC50 (50% reduction in cell viability); OVCAR-5 (Ovarian); serum-free conditions, 48 hour treatment; mean ± SEM
[2] = system: PC-3 prostate carcinoma cells; test: Paclitaxel combination on PC-3 cells; assay type: cell-based
PC3 = test: Tumor cell viability (TABLE 1); assay type: cell-based; settings: Homo sapiens, PC-3, read-out: EC50 (50% reduction in cell viability); PC3 (Prostate); serum-free conditions, 48 hour treatment; mean ± SEM
MiaPaCa = test: Tumor cell viability (TABLE 1); assay type: cell-based; settings: Homo sapiens, MIA PaCa-2, read-out: EC50 (50% reduction in cell viability); MiaPaCa (Pancreas); serum-free conditions, 48 hour treatment; mean ± SEM
KM12 = test: Tumor cell viability (TABLE 1); assay type: cell-based; settings: Homo sapiens, read-out: EC50 (50% reduction in cell viability); KM12 (Colorectal); serum-free conditions, 48 hour treatment; mean ± SEM
MDA-MB-436 = test: Tumor cell viability (TABLE 1); assay type: cell-based; settings: Homo sapiens, read-out: EC50 (50% reduction in cell viability); MDA-MB-436 (Breast); serum-free conditions, 48 hour treatment; mean ± SEM
ACHN = test: Tumor cell viability (TABLE 1); assay type: cell-based; settings: Homo sapiens, read-out: EC50 (50% reduction in cell viability); ACHN (Renal); serum-free conditions, 48 hour treatment
OVCAR-3 = test: Tumor cell viability (TABLE 1); assay type: cell-based; settings: Homo sapiens, read-out: EC50 (50% reduction in cell viability); OVCAR-3 (Ovarian); serum-free conditions, 48 hour treatment; mean ± SEM
NCI-H23 = test: Tumor cell viability (TABLE 1); assay type: cell-based; settings: Homo sapiens, read-out: EC50 (50% reduction in cell viability); NCI-H23 (Non-Small Cell Lung); serum-free conditions, 48 hour treatment; mean ± SEM
CCRF-CEM = CCRF-CEM systemic model of acute lymphoblastoid leukemia; assay type: in vivo, mouse
Excerpt: CCRF-CEM is a p53-mutant acute lympoblastoid leukemia line of T-cell origin used as an animal (mouse) model of systemic leukemia involving intravenous inoculation of tumor cells. If left untreated, the mice succumb to disease within about 34 days post inoculation, at which time extensive tumor infiltration of spleen, liver, and bone marrow has occured.

[3] = system: acute lymphoblastoid leukemia, small cell lung cancer, prostate cancer, non-small cell lung cancer, and follicular lymphoma tumors (RS11380, DoHH2 and SuDHL-4); settings: follicular lymphoma (RS11380, DoHH2, SuDHL-4)
D54MG = test: Tumor cell viability (TABLE 1); assay type: cell-based; settings: Homo sapiens, read-out: EC50 (50% reduction in cell viability); D54MG (Glioma); serum-free conditions, 48 hour treatment; mean ± SEM
BT-549 = test: Tumor cell viability (TABLE 1); assay type: cell-based; settings: Homo sapiens, read-out: EC50 (50% reduction in cell viability); BT-549 (Breast); serum-free conditions, 48 hour treatment; mean ± SEM
NCI-H460 = test: Tumor cell viability (TABLE 1); assay type: cell-based; settings: Homo sapiens, read-out: EC50 (50% reduction in cell viability); NCI-H460 (Non-Small Cell Lung); serum-free conditions, 48 hour treatment; mean ± SEM
[4] = system: A549 human non-small cell lung carcinoma cells; test: Paclitaxel combination on A549 cells; assay type: cell-based; settings: A549 cells
SW-620 = test: Tumor cell viability (TABLE 1); assay type: cell-based; settings: Homo sapiens, read-out: EC50 (50% reduction in cell viability); SW-620 (Colorectal); serum-free conditions, 48 hour treatment; mean ± SEM
SK-OV-3 = test: Tumor cell viability (TABLE 1); assay type: cell-based; settings: Homo sapiens, read-out: EC50 (50% reduction in cell viability); SK-OV-3 (Ovarian); serum-free conditions, 48 hour treatment; mean ± SEM
COLO 205 = test: Tumor cell viability (TABLE 1); assay type: cell-based; settings: Homo sapiens, read-out: EC50 (50% reduction in cell viability); COLO 205 (Colorectal); serum-free conditions, 48 hour treatment; mean ± SEM
[5] = system: DoHH2 follicular lymphoma flank tumors; test: DoHH2 follicular lymphoma model; assay type: in vivo
DU-145 = test: Tumor cell viability (TABLE 1); assay type: cell-based; settings: Homo sapiens, read-out: EC50 (50% reduction in cell viability); DU-145 (Prostate); serum-free conditions, 48 hour treatment; mean ± SEM
IGROV-1 = test: Tumor cell viability (TABLE 1); assay type: cell-based; settings: Homo sapiens, read-out: EC50 (50% reduction in cell viability); IGROV-1 (Ovarian); serum-free conditions, 48 hour treatment; mean ± SEM
SCLC xenograft = test: Small cell lung cancer xenograft tumor model; assay type: in vivo, murine
Excerpt: (H146 and SCLC xenograft) from human-derived small cell lung cancer isolated from smokers and nonsmokers, defective for Rb/p53 gene function, and expresseive of moderately high levels of Bcl-2.

[6] = established flank tumors, sustained period of time

CN(C)CC[C@H](CSc1ccccc1)Nc1ccc(S(=O)(=O)NC(=O)c2ccc(N3CCN(Cc4ccccc4-c4ccc(Cl)cc4)CC3)cc2)cc1[N+](=O)[O-] [EXAMPLE 2, N-(4-(4-((4′-chloro(1,1′-biphenyl)-2-yl)methyl)piperazin-1-yl)benzoyl)-4-(((1R)-3-(dimethylamino)-1-((phenylsulfanyl)methyl)propyl)amino)-3-nitrobenzenesulfonamide]
therapeutic utility against human tumor cell lines [1]: displayed therapeutic utility | EC50 (SF-295): 7700 ± 2300 nM | activity in follicular lymphoma model (RS11380): significant activity | EC50 (OVCAR-5): 1100 nM | increase in efficacy of paclitaxel when administered with the compound [2]: 4.7 fold | EC50 (PC3): 960 ± 380 nM | EC50 (MiaPaCa): 1400 ± 600 nM | EC50 (KM12): 1700 ± 200 nM | EC50 (MDA-MB-436): 3900 ± 2600 nM | EC50 (ACHN): 1000 nM | EC50 (OVCAR-3): 1900 ± 300 nM | EC50 (NCI-H23): 7400 ± 600 nM | activity in leukemia model (CCRF-CEM; CCRF-CEM T-cell acute lymphoblastoid leukemia model): significant activity | survival (CCRF-CEM; mice, intravenous inoculation of tumor cells): prolonged survival; also recorded: increased the average survival | tumor infiltration in liver and spleen (histopathology) (CCRF-CEM; relative to controls): lower tumor infiltration | average spleen weight (CCRF-CEM; relative to vehicle controls): significant decrease in average spleen weight | therapeutic utility in xenograft models [3]: displayed therapeutic utility | EC50 (D54MG): 3100 ± 2500 nM | EC50 (BT-549): 6500 ± 2300 nM | EC50 (NCI-H460): 2300 ± 1500 nM | increase in efficacy of paclitaxel when administered with the compound [4]: about 4.4 fold | EC50 (SW-620): 690 ± 70 nM | EC50 (SK-OV-3): 5600 ± 1000 nM | EC50 (COLO 205): 510 ± 70 nM | tumor regression, combination with Rituxin® [5, 6]: complete regression of a significant percentage of established DoHH2 follicular lymphoma flank tumors | tumor regression, combination with rapamycin [5, 6]: complete regression of a significant percentage of established DoHH2 follicular lymphoma flank tumors | tumor growth ([5]; model of follicular lymphoma (DOHH-2)): inhibited tumor growth | EC50 (DU-145): 8200 ± 1100 nM | EC50 (IGROV-1): 1700 ± 600 nM | anti-tumor activity (SCLC xenograft; SCLC xenograft murine model): demonstrated anti-tumor activity | anti-tumor activity compared with paclitaxel (SCLC xenograft; paclitaxel near the maximum tolerated dose): equivalent to slightly better than paclitaxel | anti-tumor activity compared with cisplatin and etoposide (SCLC xenograft; small cell lung cancer xenograft tumor model): superior to cisplatin and etoposide
